Experimental data as given in patent US8957114B2, “Formulations, salts and polymorphs of transnorsertraline and uses thereof” (Sunovion Pharmaceuticals Inc., priority 2009, dated 2015).

How the values were obtained:
[1] = Solubility of transnorsertraline salts in aqueous buffer systems (SGF, acetate buffer pH 4.5, SIF; HPLC); type: physicochemical
Method: Saturated solutions with excess solids were prepared in 20 mL clear glass scintillation vials. Simulated gastric fluid (pH 1.0, ˜0.1N HCl, 0.03M NaCl, no enzymes), simulated intestinal fluid (pH 6.8, 0.05M KH2PO4, ˜0.02N NaOH, no enzymes), and acetate buffer (pH 4.5, 0.02M sodium acetate, 0.03M acetic acid) were prepared in accordance with USP28 (USP28 Test Solutions p2855, Volumetric Solutions p2863). […] Solubility was determined using a HPLC method.

[2] = Moisture content by coulometric Karl Fischer titration (KF); type: physicochemical
Method: (§1) Each salt was analyzed by coulometric titration using an EM Scientific Aquastar C3000 titrator to determine water content. […] Each salt was analyzed using a Perkin Elmer TGA 7 Thermal Gravimetric Analyzer (TGA). […] Moisture sorption isotherms for each salt were generated using the VTI SGA-100 Symmetric Vapor Sorption Analyzer. Samples were run as received without pre-analysis drying. Equilibrium criteria were the lesser of 0.01 wt % change in 5 minutes or 180 minutes at each relative humidity (RH) step. […] Analysis was repeated for each sample in consecutive analyses (sample was not removed from analyzer). Sample sizes ranged from 18 mg to 35 mg.

[3] = VTI moisture sorption isotherm (hygroscopicity); type: physicochemical; conditions: 25° C.
Method: as §1

[4] = Solubility of transnorsertraline salts in de-ionized water (HPLC); conditions: for pH: saturated solution in de-ionized water; for Solubility in Freebase Equivalents mgA/mL: de-ionized water, ambient, shaken up to nine days until equilibrium
Method: For each salt, saturated solutions with excess solids in deionized water were prepared in 20 mL clear glass scintillation vials with screw caps. All samples were shaken at 300 rpm at ambient conditions for up to nine days until equilibrium was achieved. Solubility was determined using a HPLC method (Table 5).

[5] = Thermal gravimetric analysis (TGA) weight loss; type: physicochemical; conditions: heated 25° C. to 325° C. at 10° C./min
Method: The sixteen salts of transnorsertraline of Example 6.14 were analyzed for moisture content and hygroscopicity. Each salt was analyzed by coulometric titration using an EM Scientific Aquastar C3000 titrator to determine water content. Sample size ranged from 18 mg to 134 mg. Each salt was analyzed using a Perkin Elmer TGA 7 Thermal Gravimetric Analyzer (TGA). […] Moisture sorption isotherms for each salt were generated using the VTI SGA-100 Symmetric Vapor Sorption Analyzer. Samples were run as received without pre-analysis drying. Equilibrium criteria were the lesser of 0.01 wt % change in 5 minutes or 180 minutes at each relative humidity (RH) step. Temperature was fixed at 25° C. and the relative humidity steps (25 to 95% to 25%) were in 5% increments. Analysis was repeated for each sample in consecutive analyses (sample was not removed from analyzer). Sample sizes ranged from 18 mg to 35 mg.

[6] = Open dish excipient compatibility study Set 1a/1b (Active 1 with single excipients), 40° C./75% RH, 3 weeks, % impurities; type: physicochemical
Method: A Zorban SB-CN […], 25 cm×4.6 mm analytical column using a 0.05% trifluoroacetic acid in a 80:20 water:acetonitrile solution (Mobile Phase A) followed by a 0.05% trifluoroacetic acid in a 15:85 water:acetonitrile solution (Mobile Phase B) was used. Column temperature: 30° C. The flow rate: 1.0 mL/min. Injection volume: 50 μL. Wavelength: 220 nm. Minimum run time: 50 min (15 min delay). Mobile Phase gradient: […]
Transnorsertraline HCl (1) (“Active 1”) was mixed with each excipient present in 1 mg capsule strength respectively. The samples contained two different ratios (1:1 and as in the 1 mg capsules) of active and excipients.

[7] = saturated solution in 0.05M Acetate Buffer (pH 4.5)
[8] = saturated solution in Simulated Gastric Fluid
[9] = saturated solution in Simulated Intestinal Fluid
[10] = repeated consecutive analysis (second line)
[11] = 0.05M Acetate Buffer (pH 4.5), ambient, up to nine days
[12] = Simulated Gastric Fluid (no enzymes), ambient, up to nine days
[13] = Simulated Intestinal Fluid (pH 6.8, no enzymes), ambient, up to nine days
[14] = Set 1a, active:excipient 1:1, open dish 40° C./75% RH
[15] = Set 1b, active:excipient ratio as in 1 mg capsules, open dish 40° C./75% RH

Row | VTI Desorp. (% wt loss 95 to 25% RH) ([3]; first analysis) | VTI Adsorp. (% wt gain 25 to 95% RH) [3, 10] | VTI Desorp. (% wt loss 95 to 25% RH) [3, 10] | Molecule | pH [1, 7] | pH [1, 8] | pH [1, 9] | Initial KF (% H2O) [2] | VTI Adsorp. (% wt gain 25 to 95% RH) ([3]; first analysis) | pH [4] | TGA (% wt loss) [5] | further results
1 | 1.36 % wt loss | 1.37 % wt gain | – | L-tartrate | 4.58 | 1.24 | 6.73 | 0.62 % H2O | 3.52 % wt gain | 2.63 | – | –
2 | 3.96 % wt loss | 3.24 % wt gain | 3.61 % wt loss | Citrate | – | – | – | 0.31 % H2O | 2.59 % wt gain | – | – | –
3 | 0.10 % wt loss | 0.08 % wt gain | 0.07 % wt loss | Benzoate | – | – | – | 0.27 % H2O | 0.10 % wt gain | – | 0.05 % wt loss | –
4 | 9.51 % wt loss | 7.25 % wt gain | – | O=S(=O)(O)O [Sulfate] | – | – | – | 3.34 % H2O | 10.19 % wt gain | – | 4.20 % wt loss | –
5 | – | – | – | N[C@@H]1CC[C@@H](c2ccc(Cl)c(Cl)c2)c2ccccc21.O=C1CC[C@@H](C(=O)O)N1 | – | – | – | 0.10 % H2O | 17.28 % wt gain | – | – | –
6 | – | – | – | Transnorsertraline HCl [active 1] | – | – | – | – | – | – | – | % Active [6, 14]: 99.68%; % Impurities, peak RRT 0.764 [6, 14]: 0.05%; % Impurities, peak RRT 0.862, Synthetic Impurity 1 [6, 14]: 0.04%; % Impurities, peak RRT 0.885, Synthetic Impurity 2 [6, 14]: 0.05%; % Impurities, peak RRT 1.07, cis-diastereomer [6, 14]: 0.12%; % Impurities, peak RRT 1.386 [6, 14]: 0.07%; % Total Impurities [6, 14]: 0.33%; impurities formed due to the presence of excipients ([6]; Set 1a, ratio of active to excipient 1:1, 40° C./75% RH): no appreciable impurities formed; % Active [6, 15]: 99.68%; % Impurities, peak RRT 0.764 [6, 15]: 0.05%; % Impurities, peak RRT 0.862, Synthetic Impurity 1 [6, 15]: 0.04%; % Impurities, peak RRT 0.885, Synthetic Impurity 2 [6, 15]: 0.05%; % Impurities, peak RRT 1.07, cis-diastereomer [6, 15]: 0.12%; % Impurities, peak RRT 1.386 [6, 15]: 0.07%; % Total Impurities [6, 15]: 0.33%
7 | 1.37 % wt loss | 2.14 % wt gain | 1.20 % wt loss | Phosphate | 4.55 | 1.24 | 6.49 | 0.16 % H2O | 3.00 % wt gain | 3.27 | – | Solubility in Freebase Equivalents mgA/mL ([1]; pH 1): <0.01 mgA/mL; Solubility in Freebase Equivalents mgA/mL ([1]; pH 4.5): 2.63 mgA/mL; Solubility in Freebase Equivalents mgA/mL ([1]; pH 6.8): 0.27 mgA/mL

Row | Molecule | VTI Desorp. (% wt loss 95 to 25% RH) ([3]; first analysis) | VTI Adsorp. (% wt gain 25 to 95% RH) [3, 10] | VTI Desorp. (% wt loss 95 to 25% RH) [3, 10] | pH [1, 7] | pH [1, 8] | pH [1, 9] | Initial KF (% H2O) [2] | VTI Adsorp. (% wt gain 25 to 95% RH) ([3]; first analysis) | pH [4] | TGA (% wt loss) [5] | further results
8 | Tosylate | 0.06 % wt loss | – | – | 4.56 | 1.10 | 6.78 | 0.09 % H2O | 0.06 % wt gain | 6.16 | 0.16 % wt loss | Solubility in Freebase Equivalents mgA/mL [1, 11]: 0.63 mgA/mL; Solubility in Freebase Equivalents mgA/mL [1, 12]: 0.06 mgA/mL; Solubility in Freebase Equivalents mgA/mL [1, 13]: 0.21 mgA/mL; Solubility in Freebase Equivalents mgA/mL [4]: 0.53 mgA/mL
9 | S-mandelate | 3.95 % wt loss | 3.79 % wt gain | 3.02 % wt loss | – | – | – | 0.32 % H2O | 3.24 % wt gain | – | – | –
10 | Maleate | 0.09 % wt loss | 0.08 % wt gain | 0.08 % wt loss | 4.52 | 1.25 | 6.47 | 0.06 % H2O | 0.10 % wt gain | 3.98 | 0.02 % wt loss | Solubility in Freebase Equivalents mgA/mL [1, 11]: 1.23 mgA/mL; Solubility in Freebase Equivalents mgA/mL [1, 12]: 0.08 mgA/mL; Solubility in Freebase Equivalents mgA/mL [1, 13]: 0.28 mgA/mL; Solubility in Freebase Equivalents mgA/mL [4]: 1.88 mgA/mL
11 | Succinate | 3.17 % wt loss | – | – | 4.50 | 1.27 | 6.46 | 1.03 % H2O | 3.25 % wt gain | 3.89 | – | –
